Assay results reported in patent US20250248979A1, “NOVEL GPX4 INHIBITORS AND USES THEREOF” (THE TRUSTEES OF COLUMBIA UNIVERSITY IN THE CITY OF NEW YORK, priority 2022, published 2025).

molecular target: T1, GPX4 (Homo sapiens, UniProt P36969); assay: GPX4 activity assay in cell lysates (NADPH-coupled); format: biochemical; parameters: endogenous in cells; host or cells: A-673 cell lysate; conditions: not given
T1 sequence (P36969 1-170 isoform P36969-2): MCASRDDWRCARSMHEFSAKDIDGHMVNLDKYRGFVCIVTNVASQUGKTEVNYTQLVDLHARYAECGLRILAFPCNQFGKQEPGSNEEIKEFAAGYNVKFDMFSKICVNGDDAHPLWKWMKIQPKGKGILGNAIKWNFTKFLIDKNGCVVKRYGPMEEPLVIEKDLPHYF
Method: Determination of GPX4 activity in cell lysates was performed as previously described by Roveri et al. 1994 with minor modifications. Briefly, the assay measures the consumption of NADPH, which has a characteristic absorbance at 340 nm, over time as a proxy for GPX4 activity. The rationale for this is that as GPX4 reduces phospholipid hydroperoxides, it oxidizes glutathione, which is then regenerated by glutathione reductase at the expense of NADPH. NADPH is added to the assay in excess such that the reduction of oxidized glutathione is not the rate-limiting reaction in the assay. Thus, the resulting reduction in NADPH absorbance over time reflects GPX4 activity.
The GPX4-specific substrate phosphatidylcholine hydroperoxide (PCOOH) was prepared by enzymatic hydroperoxidation. Specifically, 0.3 mM phosphatidylcholines (Sigma-Aldrich) were incubated with 0.7 mg soybean lipoxidase type IV (Sigma-Aldrich) in 22 mL of 0.2 M Tris-HCl pH 8.8 with 3 mM sodium deoxycholate at room temperature under continuous stirring for 30 minutes. A Sep-Pak C18 cartridge (Waters-Millipore) was pre-washed with methanol and equilibrated with water, then the substrate mixture was loaded. The column was washed with 10 volumes of water and PCOOH was eluted with 2 mL of methanol.
To prepare the cell lysate containing native GPX4, A-673 cells were cultured with 20 nM sodium selenite to confluency over two days then harvested and washed with cold PBS. Cells were then resuspended at 10 million cells per 1 mL LCW lysis buffer (0.5% peroxide-free Triton X-100, 0.5% sodium deoxycholate salt, 150 mM NaCl, 20 mM Tris-HCl pH 7.5, 10 mM EDTA, 30 mM sodium pyrophosphate, and complete protease inhibitor cocktail), vortexed for 30 seconds, and incubated on ice for 15 minutes. After lysis, the lysates were centrifuged at 14,000×g and 4° C. for 15 minutes. The supernatants were transferred to new pre-chilled tube and the debris pellet was discarded. The protein concentration in the lysate was determined for normalization using the BCA Protein Assay Kit (Pierce).
To measure GPX4 activity, 50 μL of cell lysate was combined with 200 μL activity assay buffer (0.1% Triton X-100, 100 mM Tris-HCl pH 8.0, 10 mM sodium azide, 5 mM EDTA, 0.6 IU/mL glutathione reductase, 0.5 mM NADPH and 3 mM GSH) and compounds of interest in a clear 96-well plate and incubated at 37° C. for 45 minutes. Compounds were dissolved in DMSO. All conditions were tested in triplicate. PCOOH substrate was added to the mixture to initiate GPX4 activity just before reading the plate. The absorbance of NADPH at 340 nm was monitored kinetically over time for 25 minutes. Buffer-only controls and controls without substrate containing only the methanol vehicle were performed to assess background and baseline signal. GPX4 activity was calculated as previously reported by Stolwijk et al. 2020 and results were analyzed in GraphPad Prism 9.

Row | Structure (SMILES) | GPX4 inhibitory activity, result in words
1 | CC(C)Oc1ccc(-c2ccc3c(C(=O)NC(C)(C)COC(=O)CCl)nn(C)c3c2)cn1 [QW-720] | substantially higher GPX4 inhibitory activities than QW-446
2 | C=CC(=O)OCC(C)(C)NC(=O)c1nn(C)c2cc(Br)ccc12 [QW-417] | inactive during GPX4 inhibition

same assay, conditions: 2.5 μM

Row | Structure (SMILES) | GPX4% inhibition at 2.5 μM [%] | GPX4 inhibition [%]
3 | Cn1nc(C(=O)NC(C)(C)COC(=O)CCl)c2ccc(-c3ccc(OCC(F)(F)F)cc3)cc21 [QW-719] | 2.4 ± 17.3 | 
4 | Cn1nc(-n2cc(CCOC(=O)CCl)nn2)c2ccc(-c3ccc(OC(F)(F)F)c(Cl)c3)cc21 [QW-764] | 25.4 ± 12.0 | 
5 | Cn1nc(C(=O)NCC(C)(C)OC(=O)CCl)c2ccc(-c3ccc(N4CCOCC4)c(Cl)c3)cc21 [QW-775] | 36.2 ± 4.1 | 
6 | Cn1nc(C(=O)NC(C)(C)COC(=O)CCl)c2ccc(-c3ccc(S(=O)(=O)N4CCC4)cc3)cc21 [QW-724] | 23.8 ± 3.7 | 
7 | CN1CCN(Cc2ccc(-c3ccc4c(C(=O)NC(C)(C)COC(=O)CCl)nn(C)c4c3)cc2)CC1 [QW-617] | 80.9 ± 3.4 | 
8 | COc1ccc(-c2ccc3c(C(=O)NC(C)(C)COC(=O)C#C[Si](C)(C)C)nn(C)c3c2)cc1Cl [QW-612] | −5.7 ± 11.7 | 
9 | CN(C)CCCOc1ccc(-c2ccc3c(C(=O)NC(C)(C)COC(=O)CCl)nn(C)c3c2)cc1 [QW-647] | 46.9 ± 35.9 | 
10 | Cn1nc(C(=O)NC(C)(C)CNC(=O)CCl)c2ccc(-c3ccc(Cl)c(Cl)c3)cc21 [QW-636] | 50.2 ± 22.0 | 
11 | COc1ccc(-c2ccc3c(C(=O)NCC(C)(C)OC(=O)CCl)nn(C)c3c2)cc1Br [QW-783] | −172.4 ± 10.3 | 
12 | COC(=O)C=CC(=O)OCC(C)(C)NC(=O)c1nn(C)c2cc(-c3ccc(OC)c(Cl)c3)ccc12 [QW-646] | 52.0 ± 27.0 | 
13 | COc1cc(F)c(-c2ccc3c(C(=O)NC(C)(C)COC(=O)CCl)nn(C)c3c2)cc1Cl [QW-830] | 65.5 ± 5.9 | 
14 | COc1c(Cl)cc(-c2ccc3c(C(=O)NC(C)(C)COC(=O)CCl)nn(Cc4ccc(Cl)cc4)c3c2)cc1C(F)(F)F [QW-836] |  | 50
15 | CC(C)Oc1ccc(-c2ccc3c(C(=O)NC(C)(C)COC(=O)CCl)nn(C)c3c2)cn1 [QW-720] | 76.9 ± 4.2 | 
16 | CCOc1ccc(-c2ccc3c(-n4cc(C(C)(C)COC(=O)CCl)nn4)nn(C)c3c2)cc1Cl [QW-681] | 31.0 ± 4.9 | 
17 | COc1ncc(-c2ccc3c(C(=O)NC(C)(C)COC(=O)CCl)nn(C)c3c2)cc1F [QW-768] | 32.6 ± 7.9 | 
18 | COc1ccc(-c2ccc3c(NC(=O)C(C)(C)COC(=O)CCl)nn(C)c3c2)cc1Cl [QW-722] | −2.2 ± 5.0 | 
19 | Cn1nc(C(=O)NCC(C)(C)OC(=O)CCl)c2ccc(-c3ccc(OC(F)(F)F)c(Cl)c3)cc21 [QW-779] | 39.1 ± 17.7 | 
20 | CC(C)Oc1ncc(-c2ccc3c(-n4cc(C(C)(C)COC(=O)CCl)nn4)nn(C)c3c2)cn1 [QW-760] | 14.6 ± 12.4 | 
21 | Cn1nc(C(=O)NC(C)(C)COC(=O)CCl)c2ccc(-c3cc4cc(F)ccc4n3C(=O)OC(C)(C)C)cc21 [QW-659] | −1.2 ± 15.2 | 
22 | CCOc1ccc(-c2ccc3c(C(=O)NC(C)(C)C(C)(C)OC(=O)CCl)nn(C)c3c2)cc1Cl [QW-765] | 12.0 ± 10.7 | 

same assay, conditions: 2.5 μM; 4th generation

Row | Structure (SMILES) | GPX4% inhibition at 2.5 μM [%]
23 | COc1c(Cl)cc(-c2ccc3c(C(=O)NC(C)(C)COC(=O)CCl)nn(Cc4ccc(Cl)cc4)c3c2)cc1C(F)(F)F [QW-836] | 45.7 ± 17.5

same assay, conditions: 2.5 μM; generation 2

Row | Structure (SMILES) | GPX4% inhibition at 2.5 μM [%]
24 | Cn1nc(C(=O)NC(COC(=O)CCl)C(F)(F)F)c2ccc(Br)cc21 (stereo not shown) [QW-683] | −37.4 ± 5.2

same assay, conditions: 5 μM

Row | Structure (SMILES) | GPX4% inhibition at 5 μM [%]
25 | Cn1nc(C(=O)NC(C)(C)COC(=O)CCl)c2ccc(-c3ccc(OC(F)(F)F)cc3)cc21 [QW-469] | 64.3 ± 0.7
26 | Cn1nc(C(=O)NC(C)(C)COC(=O)CCl)c2ccc(-c3cc4ccccc4[nH]3)cc21 [QW-453] | 67.0 ± 4.7
27 | CN(C)CCCOc1ccc(-c2ccc3c(C(=O)NC(C)(C)COC(=O)CCl)nn(C)c3c2)cc1 [QW-647] | 20.9 ± 14.0
28 | Cn1nc(C(=O)NC(C)(C)CNC(=O)CCl)c2ccc(-c3ccc(Cl)c(Cl)c3)cc21 [QW-636] | 76.4 ± 32.7
29 | COc1ccccc1-c1ccc2c(C(=O)NC(C)(C)COC(=O)CCl)nn(C)c2c1 [QW-483] | 35.8 ± 7.4
30 | COC(=O)C=CC(=O)OCC(C)(C)NC(=O)c1nn(C)c2cc(-c3ccc(OC)c(Cl)c3)ccc12 [QW-646] | 30.6 ± 12.2
31 | CC(C)Oc1ccccc1-c1ccc2c(C(=O)NC(C)(C)COC(=O)CCl)nn(C)c2c1 [QW-509] | 28.3 ± 3.0
32 | Cn1nc(C(=O)NC(C)(C)COC(=O)CCl)c2ccc(-c3ccc(Cl)cc3)cc21 [QW-494] | 76.8 ± 2.3
33 | Cn1nc(C(=O)NC(C)(C)COC(=O)CCl)c2ccc(-c3cnc4ccccc4c3)cc21 [QW-542] | 75.6 ± 4.5
34 | Cn1nc(C(=O)NC(C)(C)COC(=O)CCl)c2ccc(-c3cc4cc(F)ccc4n3C(=O)OC(C)(C)C)cc21 [QW-659] | 8.5 ± 13.4
35 | Cn1nc(C(=O)NC(C)(C)COC(=O)CCl)c2ccc(-c3ccc(F)nc3)cc21 [QW-444] | 34.1 ± 0.3

same assay, conditions: 5 μM; generation 2

Row | Structure (SMILES) | GPX4% inhibition at 5 μM [%]
36 | COc1cccc2c(C(=O)NC(C)(C)COC(=O)CCl)nn(C)c12 [QW-398] | 20.3 ± 9.5
37 | Cn1nc(C(=O)NCCCCC(O)S(=O)(=O)[O-])c2ccc(Br)cc21.[Na+] (stereo not shown) [QW-534] | −36.6 ± 4.8
38 | Cn1nc(C(=O)NCCCCC=O)c2ccc(Br)cc21 [QW-527] | −24.5 ± 0.5
39 | Cn1nc(C(=O)NCCCCCOC(=O)CCl)c2ccc(Br)cc21 [QW-521] | −19.3 ± 9.9
40 | Cn1nc(C(=O)NC(C)(C)COC(=O)CCl)c2cccnc21 [QW-426] | −11.3 ± 4.7
41 | Cc1cc(C(=O)OCC(C)(C)NC(=O)c2nn(C)c3cc(Br)ccc23)no1 [QW-429] | −2.3 ± 2.3
42 | C=CC(=O)OCC(C)(C)NC(=O)c1nn(C)c2cc(Br)ccc12 [QW-417] | −5.2 ± 10.0
43 | CC(C)(COC(=O)CCl)NC(=O)c1nc2cc(Br)ccc2[nH]1 [QW-407] | −14.3 ± 5.2

same assay, conditions: 200 μM

Row | Structure (SMILES) | GPX4 inhibition [%]
44 | CC(C)(COC(=O)CCl)NC(=O)c1c[nH]c2ccccc12 [QW-280] | 76

same assay, conditions: 200 μM; generation 1; mean ± s.d., n = 3

Row | Structure (SMILES) | GPX4% inhibition at 200 (μM) [%]
45 | C=CC(=O)OCCNC(=O)c1cc2ccc(OC)cc2[nH]1 [QW-301] | 3.3 ± 1.2
46 | C=CC(=O)OCCC(C)(C)NC(=O)c1cc2ccc(OC)cc2[nH]1 [QW-286] | 11.5 ± 7.1
47 | Cc1onc(C(=O)OCC(C)(C)NC(=O)Cc2cc3ccccc3[nH]2)c1[N+](=O)[O-] [QW-268] | −8.0 ± 15.8
48 | CC(C)(COC(=O)CCl)NC(=O)c1cc2ccccc2s1 [QW-274] | 27.5 ± 4.4
49 | CC(C)(COC(=O)CCl)NC(=O)c1cccs1 [QW-259] | 27.7 ± 26.1
50 | COc1ccc2cc(C(=O)NC(C)(C)COC(=O)CBr)[nH]c2c1 [QW-162] | 103.8 ± 7.6
51 | C=CC(=O)OCC(C)(C)NC(=O)c1cc2ccccc2s1 [QW-276] | 5.9 ± 4.4
52 | COc1cccc2[nH]c(C(=O)NC(C)(C)COC(=O)CBr)cc12 [QW-159] | 56.0 ± 7.3
53 | CC(C)(COC(=O)CBr)NC(=O)c1cc2cc(Cl)ccc2[nH]1 [QW-165] | 73.9 ± 5.3
54 | CC(C)(COC(=O)CCl)NC(=O)c1c[nH]c2ccccc12 [QW-280] | 75.9 ± 15.5
55 | C=CC(=O)OCC(C)(C)NC(=O)c1cc2cc(C)ccc2[nH]1 [QW-170] | 5.3 ± 10.0
56 | C=CC(=O)OCC(C)(C)NC(=O)c1cc2cc([N+](=O)[O-])ccc2[nH]1 [QW-172] | 16.1 ± 16.0
57 | Cn1cc(C(=O)NC(C)(C)COC(=O)C#C[Si](C)(C)C)c2ccc(Br)cc21 [QW-337] | 67.2 ± 3.4
58 | Cn1cc(C(=O)NC(C)(C)COC(=O)CCl)c2ccc(Br)cc21 [QW-325] | 76.6 ± 3.9

same assay, conditions: 200 μM; generation 2

Row | Structure (SMILES) | GPX4% inhibition at 200 (μM) [%]
59 | CC(C)(COC(=O)CBr)NC(=O)c1n[nH]c2ccccc12 [QW-297] | 73.1 ± 14.6
60 | Cc1onc(C(=O)OCC(C)(C)NC(=O)c2nn(C)c3ccccc23)c1[N+](=O)[O-] [QW-363] | −15.4 ± 8.4
61 | C=CC(=O)OCC(C)(C)NC(=O)c1n[nH]c2ccccc12 [QW-298] | 7.9 ± 8.2

same assay, conditions: 200 μM; mean ± s.d., n = 3

Row | Structure (SMILES) | GPX4% inhibition at 200 (μM) [%]
62 | Cc1ccc2[nH]c(C(=O)n3ccnc3)cc2c1 [QW-056] | 32.7 ± 18.4
63 | O=C(c1cc2cc([N+](=O)[O-])ccc2[nH]1)n1ccnc1 [QW-049] | −2.6 ± 14.6

same assay, conditions: concentration not given

Row | Structure (SMILES) | GPX4 inhibition rate
64 | Cn1nc(C(=O)NC(C)(C)COC(=O)CCl)c2ccc(-c3ccc(OCC(F)(F)F)cc3)cc21 [QW-719] | no inhibition on GPX4
